{"source": "patent US20140243415A1", "about": "“COMPOUNDS INHIBITING GALECTIN-1 EXPRESSION, CANCER CELL PROLIFERATION, INVASION, AND TUMORIGENESIS” (ONCOETHIX SA, priority 2011, published 2014)", "test_system": "panel of human cancer cell lines", "test": "MTT cell cytotoxicity assay, cell line panel", "format": "cell-based", "details": "Homo sapiens; remaining cell lines (other than SQ20B, OVCAR3, A2780-1A9)", "protocol": "Cell survival was determined using the MTT assay (3-[4,5-dimethylthiazol-2-yl]-2,5-diphenyltetrazolium bromide; Sigma, Saint-Quentin Fallavier, France). The conversion of yellow water-soluble tetrazolium MTT into purple insoluble formazan is catalyzed by mitochondrial dehydrogenases and used to estimate the number of viable cells. In brief, cells were seeded in 96-well tissue culture plates at a density of 2×10^3 cells/well. After 72 h drug exposure and 48 h wash-out, cells were incubated with 0.4 mg/ml MTT for 4 hours at 37° C. After incubation, the supernatant was discarded, insoluble formazan precipitates were dissolved in 0.1 ml of DMSO and the absorbance was measured at 560 nm by use of a microplate reader (Thermo, France). […] IC50's were determined as the halves of maximal inhibitory drug concentration for each cell line.\nThe antiproliferative effects of OTX-008 and anginex were assessed using MTT assay in a panel of human cancer cell lines of human origins expressing various levels of Lgals-1 mRNA and galectin-1 protein expressions (Supplementary Table 1). […] No correlation between mRNA expressions of galectin-2, galectin-3, and galectin-8 as well as semaphorin-3A, semaphorin-3B, neuropilin-1, VEGFR1-3, VEGFA-D, and PDGFRa&P3 and sensitivity to OTX-008 were detected in the panel.", "data": [{"compound": "CN(C)CCNC(=O)COc1c2cccc1Cc1cccc(c1OCC(=O)NCCN(C)C)Cc1cccc(c1OCC(=O)NCCN(C)C)Cc1cccc(c1OCC(=O)NCCN(C)C)C2", "note": "[OTX-008]", "values": [{"measurement": "GI50", "result": "> 9", "unit": "µM"}]}]}
